Two molecules from patent US9109041B2, “Analog compounds of analgesic peptides derived from the venom of crotalus durissus terrificus snakes, their uses, compositions, methods of preparation and purification” (priority 2004, dated 2015) can be followed below.

This test relates to allodynia induced by constriction of the sciatic nerve. Nature of the test: allodynia induced by chronic constriction of the sciatic nerve (von Frey hairs). The format is in vivo, rat. The following applies: saline + antagonist alone i.pl. (ICI 10, nor-BNI 50, CTOP 20 μg/paw); for paw withdrawal threshold (allodynia), FM 1 h: 1 h after treatment; for paw withdrawal threshold (allodynia), FM 3 h: 3 h after treatment; for paw withdrawal threshold (allodynia), BM: before surgery; for paw withdrawal threshold (allodynia), IM: day 14, before treatment. As to the method:
For the induction of neuropathic pain, surgery was performed in the sciatic nerve, in accordance with the method described by Bennett, G. J and Xie, Y. K. (Pain, 33:87-107, 1988). The animals were anesthetized with halothane. The sciatic nerve was exposed in the middle region of the thigh, moving away the femoral biceps muscle. Close to the trifurcation of the sciatic nerve, 7 mm of distance from the trifurcation, 4 loose ligations were performed (chromed catgut 4-0) around it, distant from each other in approximately 1 mm. The bindings were performed along the nerve, up to 4-5 mm from the initial point. The incision was sutured in layers, using silk suture thread number 4-0.
Allodynia was evaluated for quantitative testing, in response to tactile stimulus applied to the paws of the rat, according to the method described by Chaplan el al. (1994), modified. In this test, the rats were placed, individually, in plastic cages, with meshed wire at the bottom, to allow access to the paws of these animals. Briefly, a logarithmic series of 10 calibrated Semmes-Weinstein monofilaments (von Frey hairs, Aesthesiometer Semmer-Weinstein, Stoelting Co., E.U.A) was applied to the right hind paw to determine the stimulus intensity threshold stiffness required to elicit a paw withdrawal response. Log stiffness of the hairs is determined by log 10 (mg×10) having the following values (the value in grams is between parenthesis): 3.61 (0.407 g); 3.84 (0.692 g); 4.08 (1.202 g); 4.17 (1.479 g); 4.31 (2.041 g); 4.56 (3.630 g); 4.74 (5.495 g); 4.93 (8.511 g); 5.07 (11.749 g) and 5.18 (15.136 g). It is important to point out that the filaments with weight greater than 15.136 g were not employed in the studies of allodynia.
The filaments were applied, one by one, perpendicularly, under the plantar area of both hind paws and maintained for a period of 8 seconds. The filament capable of eliciting the withdrawal of the paw, two consecutive times, was considered as the force in grams necessary to elicit the response (100% of response). In the absence of a response to the greater stimulus (15.135 g), this filament was considered as cut value.
The behavioral responses were used to calculate the 50% paw withdrawal threshold (absolute threshold), by fitting a gaussian integral psychometric function, using a maximum-likelihood fitting method. This fitting method allows parametric analyses.
The period of the application of the test and the treatments were the same as those used for determination of hyperalgesia (Table 12).
The results were analyzed by comparing the means of the basal and initial measurements or, when determined, by comparing the means obtained in the different experimental groups.
For this purpose, the animals were treated with CTOP, a specific μ receptor antagonist (20 μg/paw), nor-BNI, a specific κ receptor antagonist (50 μg/paw) or with ICI 174,864, a specific δ receptor antagonist (10 μg/paw). The antagonists were injected, by intraplantar route. The peptide was administered in the dose of 5 μg/kg, orally, immediately before the injection of the opioid antagonists.
The results were analyzed comparing the mean values of the basal and initial measurements, or of the initial and final measurements or, when determined, by comparing the mean values obtained in the different experimental groups (Tables 15 and 16).

For the molecule `Oc1ccc2c3c1O[C@H]1c4[nH]c5c(c4C[C@@]4(O)[C@@H](C2)N(CC2CC2)CC[C@]314)C[C@@]1(O)[C@H]2Cc3ccc(O)c4c3[C@@]1(CCN2CC1CC1)[C@H]5O4` [nor-BNI, nor-Binalthorphimine, reference compound], the “paw withdrawal threshold (allodynia), FM 1 h” value is given as 4.22 ± 0 log 10 (mg × 10); the “paw withdrawal threshold (allodynia), FM 3 h” value was 4.22 ± 0 log 10 (mg × 10); the “paw withdrawal threshold (allodynia), BM” value is given as 5.08 ± 0 log 10 (mg × 10); the “paw withdrawal threshold (allodynia), IM” value is 4.22 ± 0 log 10 (mg × 10).

Consider CTOP [reference compound], for which the “paw withdrawal threshold (allodynia), FM 1 h” value was 4.22 ± 0 log 10 (mg × 10); the “paw withdrawal threshold (allodynia), FM 3 h” value is recorded as 4.22 ± 0 log 10 (mg × 10); the “paw withdrawal threshold (allodynia), BM” value was 5.08 ± 0 log 10 (mg × 10); the “paw withdrawal threshold (allodynia), IM” value is on record as 4.22 ± 0 log 10 (mg × 10).
